Assay results: PubChem BioAssay (NCI)
“And” between values parts separate entries of the source, which are not always exact repeats. Equal entries are not always repeated.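 Cultured in 96-well plates, cells were exposed to test compound for 48 hours across five concentrations. GI50 = concentration required for 50% inhibition of growth. TGI: total growth inhibition.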

Legend:
Assay in all cases: DTP human tumour cell line panel, 48 h
ACHN renal = tested on: ACHN renal
786-0 renal = tested on: 786-0 renal
SNB-78 CNS = tested on: SNB-78 CNS
MOLT-4 leukemia = tested on: MOLT-4 leukemia
M14 melanoma = tested on: M14 melanoma
UO-31 renal = tested on: UO-31 renal
NCI-H460 lung = tested on: NCI-H460 lung
IGROV1 ovarian = tested on: IGROV1 ovarian
OVCAR-3 ovarian = tested on: OVCAR-3 ovarian
TK-10 renal = tested on: TK-10 renal
M19-MEL melanoma = tested on: M19-MEL melanoma
SNB-75 CNS = tested on: SNB-75 CNS
OVCAR-5 ovarian = tested on: OVCAR-5 ovarian
NCI-H23 lung = tested on: NCI-H23 lung
A498 renal = tested on: A498 renal
SNB-19 CNS = tested on: SNB-19 CNS
SK-MEL-28 melanoma = tested on: SK-MEL-28 melanoma
NCI-H522 lung = tested on: NCI-H522 lung
MALME-3M melanoma = tested on: MALME-3M melanoma
CCRF-CEM leukemia = tested on: CCRF-CEM leukemia
LOX IMVI melanoma = tested on: LOX IMVI melanoma
HL-60(TB) leukemia = tested on: HL-60(TB) leukemia
SR leukemia = tested on: SR leukemia
SW-620 colon = tested on: SW-620 colon
SN12C renal = tested on: SN12C renal
UACC-62 melanoma = tested on: UACC-62 melanoma
NCI-H226 lung = tested on: NCI-H226 lung
OVCAR-8 ovarian = tested on: OVCAR-8 ovarian
COLO 205 colon = tested on: COLO 205 colon
SK-OV-3 ovarian = tested on: SK-OV-3 ovarian
HCC-2998 colon = tested on: HCC-2998 colon
HCT-116 colon = tested on: HCT-116 colon
RXF 393 renal = tested on: RXF 393 renal
DMS 273 small cell lung = tested on: DMS 273 small cell lung
HOP-18 NSCLC = tested on: HOP-18 NSCLC
KM20L2 colon = tested on: KM20L2 colon
A549 NSCLC = tested on: A549 NSCLC
KM12 colon = tested on: KM12 colon
DLD-1 colon = tested on: DLD-1 colon
SF-268 CNS = tested on: SF-268 CNS
CAKI-1 renal = tested on: CAKI-1 renal
K-562 leukemia = tested on: K-562 leukemia
RPMI-8226 leukemia = tested on: RPMI-8226 leukemia
SF-539 CNS = tested on: SF-539 CNS
HOP-62 NSCLC = tested on: HOP-62 NSCLC
U251 CNS = tested on: U251 CNS
UACC-257 melanoma = tested on: UACC-257 melanoma
SK-MEL-2 melanoma = tested on: SK-MEL-2 melanoma
LXFL 529 NSCLC = tested on: LXFL 529 NSCLC
HT29 colon = tested on: HT29 colon
HCT-15 colon = tested on: HCT-15 colon
XF 498 CNS = tested on: XF 498 CNS
SF-295 CNS = tested on: SF-295 CNS
EKVX NSCLC = tested on: EKVX NSCLC
SK-MEL-5 melanoma = tested on: SK-MEL-5 melanoma
OVCAR-4 ovarian = tested on: OVCAR-4 ovarian
HOP-92 NSCLC = tested on: HOP-92 NSCLC

SMILES: COc1ccc(/C(Cl)=C(\CN(C)C)c2ccc(OC)c(OC)c2)cc1OC
- TGI (ACHN renal): > 100000 nM
- TGI (786-0 renal): > 100000 nM
- TGI (SNB-78 CNS): 97900 nM and > 100000 nM
- TGI (MOLT-4 leukemia): > 100000 nM
- TGI (M14 melanoma): > 100000 nM
- TGI (UO-31 renal): > 100000 nM
- TGI (NCI-H460 lung): > 100000 nM
- TGI (IGROV1 ovarian): > 100000 nM
- TGI (OVCAR-3 ovarian): > 100000 nM
- GI50 (TK-10 renal): > 27900 nM
- TGI (TK-10 renal): > 100000 nM
- TGI (M19-MEL melanoma): > 100000 nM
- TGI (SNB-75 CNS): > 100000 nM
- TGI (OVCAR-5 ovarian): > 100000 nM
- TGI (NCI-H23 lung): > 100000 nM
- TGI (A498 renal): > 100000 nM
- TGI (SNB-19 CNS): > 100000 nM
- TGI (SK-MEL-28 melanoma): > 100000 nM
- TGI (NCI-H522 lung): > 100000 nM
- TGI (MALME-3M melanoma): > 100000 nM
- TGI (CCRF-CEM leukemia): > 100000 nM
- TGI (LOX IMVI melanoma): > 100000 nM
- TGI (HL-60(TB) leukemia): > 100000 nM
- TGI (SR leukemia): > 100000 nM
- TGI (SW-620 colon): > 100000 nM
- TGI (SN12C renal): > 100000 nM
- TGI (UACC-62 melanoma): > 100000 nM
- TGI (NCI-H226 lung): > 100000 nM
- TGI (OVCAR-8 ovarian): > 100000 nM
- TGI (COLO 205 colon): > 100000 nM
- TGI (SK-OV-3 ovarian): > 100000 nM
- TGI (HCC-2998 colon): > 100000 nM
- TGI (HCT-116 colon): > 46400 nM
- TGI (RXF 393 renal): > 28600 nM
- TGI (DMS 273 small cell lung): > 100000 nM
- TGI (HOP-18 NSCLC): > 100000 nM
- TGI (KM20L2 colon): > 100000 nM
- TGI (A549 NSCLC): > 100000 nM
- TGI (KM12 colon): > 100000 nM
- TGI (DLD-1 colon): > 100000 nM
- TGI (SF-268 CNS): > 100000 nM
- TGI (CAKI-1 renal): > 100000 nM
- TGI (K-562 leukemia): > 100000 nM
- TGI (RPMI-8226 leukemia): > 100000 nM
- TGI (SF-539 CNS): > 100000 nM
- TGI (HOP-62 NSCLC): > 100000 nM
- TGI (U251 CNS): > 100000 nM
- TGI (UACC-257 melanoma): > 100000 nM
- TGI (SK-MEL-2 melanoma): > 100000 nM
- TGI (LXFL 529 NSCLC): > 100000 nM
- TGI (HT29 colon): > 100000 nM
- TGI (HCT-15 colon): > 100000 nM
- TGI (XF 498 CNS): > 100000 nM
- TGI (SF-295 CNS): > 100000 nM
- TGI (EKVX NSCLC): > 100000 nM
- TGI (SK-MEL-5 melanoma): > 100000 nM

SMILES: C=[CH][Sn]([CH]=C)([S]c1cccc2cccnc12)[S]c1cccc2cccnc12
- GI50 (ACHN renal): 206 nM
- TGI (ACHN renal): 507 nM
- GI50 (786-0 renal): 216 nM
- TGI (786-0 renal): 452 nM
- GI50 (SNB-78 CNS): 145 nM
- TGI (SNB-78 CNS): 396 nM
- GI50 (MOLT-4 leukemia): 287 nM
- TGI (MOLT-4 leukemia): 967 nM
- GI50 (M14 melanoma): 210 nM
- TGI (M14 melanoma): 404 nM
- GI50 (UO-31 renal): 181 nM
- TGI (UO-31 renal): 358 nM
- GI50 (NCI-H460 lung): 201 nM
- TGI (NCI-H460 lung): 417 nM
- GI50 (IGROV1 ovarian): 273 nM
- TGI (IGROV1 ovarian): 726 nM
- GI50 (OVCAR-3 ovarian): 268 nM
- TGI (OVCAR-3 ovarian): 810 nM
- GI50 (TK-10 renal): 458 nM
- TGI (TK-10 renal): 1460 nM
- GI50 (M19-MEL melanoma): 194 nM
- TGI (M19-MEL melanoma): 372 nM
- GI50 (SNB-75 CNS): 562 nM
- TGI (SNB-75 CNS): 2370 nM
- GI50 (OVCAR-5 ovarian): 237 nM
- TGI (OVCAR-5 ovarian): 745 nM
- GI50 (OVCAR-4 ovarian): 204 nM
- TGI (OVCAR-4 ovarian): 553 nM
- GI50 (NCI-H23 lung): 169 nM
- TGI (NCI-H23 lung): 388 nM
- GI50 (SNB-19 CNS): 794 nM
- TGI (SNB-19 CNS): 2040 nM
- GI50 (SK-MEL-28 melanoma): 138 nM
- TGI (SK-MEL-28 melanoma): 321 nM
- GI50 (CCRF-CEM leukemia): 76.7 nM
- TGI (CCRF-CEM leukemia): 641 nM
- GI50 (LOX IMVI melanoma): 172 nM
- TGI (LOX IMVI melanoma): 310 nM
- GI50 (HL-60(TB) leukemia): 268 nM
- TGI (HL-60(TB) leukemia): 611 nM
- GI50 (SR leukemia): 216 nM
- TGI (SR leukemia): 687 nM
- GI50 (SW-620 colon): 156 nM
- TGI (SW-620 colon): 299 nM
- GI50 (SN12C renal): 442 nM
- TGI (SN12C renal): 1600 nM
- GI50 (UACC-62 melanoma): 147 nM
- TGI (UACC-62 melanoma): 287 nM
- GI50 (NCI-H226 lung): 280 nM
- TGI (NCI-H226 lung): 1150 nM
- GI50 (OVCAR-8 ovarian): 313 nM
- TGI (OVCAR-8 ovarian): 1000 nM
- GI50 (COLO 205 colon): 70.2 nM
- TGI (COLO 205 colon): 254 nM
- GI50 (SK-OV-3 ovarian): 436 nM
- TGI (SK-OV-3 ovarian): 1550 nM
- GI50 (HCC-2998 colon): 212 nM
- TGI (HCC-2998 colon): 437 nM
- GI50 (HCT-116 colon): 165 nM
- TGI (HCT-116 colon): 318 nM
- GI50 (RXF 393 renal): 255 nM
- TGI (RXF 393 renal): 678 nM
- GI50 (DMS 273 small cell lung): 216 nM
- TGI (DMS 273 small cell lung): 486 nM
- GI50 (HOP-18 NSCLC): 1660 nM
- TGI (HOP-18 NSCLC): 3020 nM
- GI50 (HOP-92 NSCLC): 1590 nM
- TGI (HOP-92 NSCLC): 3070 nM
- GI50 (KM20L2 colon): 211 nM
- TGI (KM20L2 colon): 449 nM
- GI50 (A549 NSCLC): 343 nM
- TGI (A549 NSCLC): 1120 nM
- GI50 (KM12 colon): 176 nM
- TGI (KM12 colon): 322 nM
- GI50 (DLD-1 colon): 244 nM
- TGI (DLD-1 colon): 722 nM
- GI50 (CAKI-1 renal): 366 nM
- TGI (CAKI-1 renal): 1580 nM
- GI50 (K-562 leukemia): 234 nM
- TGI (K-562 leukemia): 621 nM
- GI50 (RPMI-8226 leukemia): 248 nM
- TGI (RPMI-8226 leukemia): 692 nM
- GI50 (SF-539 CNS): 321 nM
- TGI (SF-539 CNS): 1010 nM
- GI50 (HOP-62 NSCLC): 1450 nM
- TGI (HOP-62 NSCLC): 3490 nM
- GI50 (U251 CNS): 191 nM
- TGI (U251 CNS): 380 nM
- GI50 (UACC-257 melanoma): 212 nM
- TGI (UACC-257 melanoma): 494 nM
- GI50 (SK-MEL-2 melanoma): 222 nM
- TGI (SK-MEL-2 melanoma): 490 nM
- GI50 (LXFL 529 NSCLC): 236 nM
- TGI (LXFL 529 NSCLC): 649 nM
- GI50 (HT29 colon): 226 nM
- TGI (HT29 colon): 476 nM
- GI50 (HCT-15 colon): 237 nM
- TGI (HCT-15 colon): 648 nM
- GI50 (XF 498 CNS): 283 nM
- TGI (XF 498 CNS): 679 nM
- GI50 (SF-295 CNS): 438 nM
- TGI (SF-295 CNS): 1830 nM
- GI50 (EKVX NSCLC): 678 nM
- TGI (EKVX NSCLC): 1970 nM
- GI50 (SK-MEL-5 melanoma): 203 nM
- TGI (SK-MEL-5 melanoma): 389 nM
